Our source for the IC50 values is ChEMBL document CHEMBL1127522, “[L-Ala3]DPDPE: a new enkephalin analog with a unique opioid receptor activity profile. Further evidence of delta-opioid receptor multiplicity” (J Med Chem, 1994).

One assay has as its target Mu-type opioid receptor (Rattus norvegicus, UniProt P33535). Put plainly: Evaluation for the binding affinity by competitive inhibition of [3H]- CTOP binding.
The target of assay [1] is Delta-type opioid receptor (Rattus norvegicus, UniProt P33533). Kind of assay: Evaluation for the binding affinity by competitive inhibition of [3H]- p-chloro DPDPE binding.
For assay [2], the target named is Delta-type opioid receptor (Mus musculus, UniProt P32300). Put plainly: Inhibitory activity of the electrically induced smooth muscle contraction of mouse vas deferens. The format is functional, tissue-based.

Bridge positions count the residues as written; N and C are the ends. Square brackets hold non-standard residues; d marks the D form. Peptide text beside a SMILES is read from it. dPen = CC(C)(S)[C@@H](N)C(=O)O; dAbu = CC[C@@H](N)C(=O)O

Chain of Mu-type opioid receptor (P33535 whole entry): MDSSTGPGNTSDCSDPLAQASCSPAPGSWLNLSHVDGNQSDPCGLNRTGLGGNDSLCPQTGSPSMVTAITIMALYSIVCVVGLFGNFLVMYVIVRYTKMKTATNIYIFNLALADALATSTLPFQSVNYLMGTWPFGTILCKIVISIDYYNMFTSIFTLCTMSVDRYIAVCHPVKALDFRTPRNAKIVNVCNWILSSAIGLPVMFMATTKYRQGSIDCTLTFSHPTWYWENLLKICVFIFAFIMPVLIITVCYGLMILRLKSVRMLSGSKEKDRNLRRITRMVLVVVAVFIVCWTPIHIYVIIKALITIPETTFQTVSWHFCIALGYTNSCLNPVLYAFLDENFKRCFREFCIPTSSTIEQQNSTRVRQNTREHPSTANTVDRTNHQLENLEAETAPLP
Chain of Delta-type opioid receptor (Rattus norvegicus, UniProt P33533) (P33533 whole entry): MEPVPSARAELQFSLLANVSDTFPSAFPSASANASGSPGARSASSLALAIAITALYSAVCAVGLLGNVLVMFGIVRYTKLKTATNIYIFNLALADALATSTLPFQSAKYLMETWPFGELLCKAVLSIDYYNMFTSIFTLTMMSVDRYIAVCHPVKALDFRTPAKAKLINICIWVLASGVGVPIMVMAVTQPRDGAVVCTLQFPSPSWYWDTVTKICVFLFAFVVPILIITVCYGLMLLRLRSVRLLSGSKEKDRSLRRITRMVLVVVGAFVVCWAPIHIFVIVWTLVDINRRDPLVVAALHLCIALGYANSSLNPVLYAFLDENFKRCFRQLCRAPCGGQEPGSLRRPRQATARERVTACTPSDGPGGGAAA
Chain of Delta-type opioid receptor (Mus musculus, UniProt P32300) (P32300 whole entry): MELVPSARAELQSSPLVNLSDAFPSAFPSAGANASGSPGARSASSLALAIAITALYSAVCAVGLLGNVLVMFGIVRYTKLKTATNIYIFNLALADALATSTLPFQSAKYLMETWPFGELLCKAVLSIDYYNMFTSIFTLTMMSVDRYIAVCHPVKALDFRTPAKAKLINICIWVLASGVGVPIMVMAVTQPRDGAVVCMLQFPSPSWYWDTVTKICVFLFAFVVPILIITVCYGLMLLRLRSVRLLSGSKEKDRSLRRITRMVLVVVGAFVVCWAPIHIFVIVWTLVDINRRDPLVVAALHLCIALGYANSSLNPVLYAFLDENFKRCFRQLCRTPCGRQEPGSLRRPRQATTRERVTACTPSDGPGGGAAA

As to `CC[C@H]1NC(=O)[C@H](NC(=O)[C@@H](N)Cc2ccc(O)cc2)C(C)(C)SSC(C)(C)[C@H](C(=O)O)NC(=O)[C@H](Cc2ccccc2)NC1=O` (H-Y[dPen][dAbu]F[dPen]-OH; disulfide 2-5), the IC50 (commonly the point on the concentration scale where inhibition reaches its midpoint) at Mu-type opioid receptor is more than 50000 nM; in assay [1] it was 2500 nM.
For `CC1(C)SSC(C)(C)[C@@H](NC(=O)[C@@H](N)Cc2ccc(O)cc2)C(=O)N[C@H](CO)C(=O)N[C@@H](Cc2ccccc2)C(=O)N[C@H]1C(=O)O` (H-Y[dPen][dS]F[dPen]-OH; disulfide 2-5), the values for the IC50 (on Mu-type opioid receptor; in assay [2]) were more than 50000 nM and 1300 nM, respectively.
At Mu-type opioid receptor, `CC1(C)SSC(C)(C)[C@@H](NC(=O)[C@@H](N)Cc2ccc(O)cc2)C(=O)N[C@@H](CO)C(=O)N[C@@H](Cc2ccccc2)C(=O)N[C@H]1C(=O)O` (H-Y[dPen]SF[dPen]-OH; disulfide 2-5) yielded a half-inhibitory concentration (IC50) of more than 22500 nM.
